As usually defined, the IC50 is the midpoint of a concentration-inhibition curve.

This experiment deals with T1, human IKK-β (Homo sapiens, UniProt O14920).
T1 construct: A cDNA fragment encoding human IKK-β open reading frame was generated by PCR; His tag (from pcDNA3.1/His C); made in house; host or cells: Sf21 insect cells (baculovirus); substrate made in E. coli
T1 sequence (O14920 1-756): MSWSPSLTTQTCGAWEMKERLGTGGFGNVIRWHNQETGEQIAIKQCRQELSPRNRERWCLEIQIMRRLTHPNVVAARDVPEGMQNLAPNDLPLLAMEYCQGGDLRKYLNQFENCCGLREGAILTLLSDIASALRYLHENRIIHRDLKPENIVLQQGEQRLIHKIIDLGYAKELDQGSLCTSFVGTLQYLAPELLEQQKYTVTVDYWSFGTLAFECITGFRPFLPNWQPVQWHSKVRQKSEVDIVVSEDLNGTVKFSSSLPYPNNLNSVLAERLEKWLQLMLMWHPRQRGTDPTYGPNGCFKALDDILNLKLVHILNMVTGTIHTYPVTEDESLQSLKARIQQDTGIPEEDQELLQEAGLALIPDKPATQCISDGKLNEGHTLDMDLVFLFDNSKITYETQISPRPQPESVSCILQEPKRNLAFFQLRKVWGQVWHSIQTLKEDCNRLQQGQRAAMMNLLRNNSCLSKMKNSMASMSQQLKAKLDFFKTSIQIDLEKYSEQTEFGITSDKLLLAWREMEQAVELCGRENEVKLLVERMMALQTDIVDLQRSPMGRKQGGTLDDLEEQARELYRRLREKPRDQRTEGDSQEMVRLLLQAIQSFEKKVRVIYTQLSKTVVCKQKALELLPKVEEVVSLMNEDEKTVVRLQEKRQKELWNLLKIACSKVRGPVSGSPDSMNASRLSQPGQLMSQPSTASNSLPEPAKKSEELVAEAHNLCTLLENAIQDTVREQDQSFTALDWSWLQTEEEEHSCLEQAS
Briefly: IKK-β kinase inhibitory assay. The format is biochemical. The following applies: compounds as yielded by solid phase synthesis, purity about 40 to 90%, read-out: In vitro activity grade (In vitro IC50). The method, boiled down:
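His-tagged human IKK-β from baculovirus-infected Sf21 cells (0.6 μg/ml final) phosphorylates biotinylated GST-IκBα(1-54) (0.2 μM) in Tris-HCl pH 7.6 buffer with MgCl2. ATP with [γ-33P]ATP added, then 2 h at room temperature. Biotinylated substrate captured on streptavidin plates; bound radioactivity counted by scintillation.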
Consider `CCC(=O)NCc1c(C2CCCNC2)cc(-c2ccccc2O)nc1N` (stereo not drawn) [Example 23-06], for which the concentration for half-maximal inhibition (IC50) was 500 to 2000 nM.
Turning to `CC(=O)NCc1c(C2CCNCC2)cc(-c2c(O)cccc2OCC2CC2)nc1N` [Example 23-07], the IC50 was under 500 nM.
With `CC(C)OC(=O)NCc1c(C2CCCNC2)cc(-c2c(O)cccc2OCC2CC2)nc1N` (stereo not drawn) [Example 23-08], the concentration for half-maximal inhibition (IC50) was under 500 nM.
Next, `CC(C)COC(=O)NCc1c(C2CCCNC2)cc(-c2c(O)cccc2OCC2CC2)nc1N` (stereo not drawn) [Example 23-09]: under 500 nM; `CC(C)(C)COC(=O)NCc1c(C2CCCNC2)cc(-c2c(O)cccc2OCC2CC2)nc1N` (stereo not drawn) [Example 23-10]: under 500 nM.
`CN(C)C(=O)NCc1c(C2CCCNC2)cc(-c2c(O)cccc2OCC2CC2)nc1N` (stereo not drawn) [Example 23-11]: the IC50 is under 500 nM.
Take `CCCNC(=O)NCc1c(C2CCCNC2)cc(-c2c(O)cccc2OCC2CC2)nc1N` (stereo not drawn) [Example 23-12]: the IC50 is under 500 nM.
For `NC(=O)NCc1c(C2CCCNC2)cc(-c2c(O)cccc2OCC2CC2)nc1N` (stereo not drawn) [Example 23-13] the value was under 500 nM.
Next, `Nc1nc(-c2c(O)cccc2OCC2CC2)cc(C2CCCNC2)c1CNC(=O)Nc1ccccc1` (stereo not drawn) [Example 23-14]: under 500 nM; `Nc1nc(-c2c(O)cccc2OCC2CC2)cc(C2CCCNC2)c1CNC(=S)Nc1ccccc1` (stereo not drawn) [Example 23-15]: under 500 nM.
Consider `CC(C)OC(=O)N1Cc2c(C3CCCNC3)cc(-c3c(O)cccc3OCC3CC3)nc2NC1=O` (stereo not drawn) [Example 24-05], for which the IC50 is under 500 nM.
For `CC(C)COC(=O)N1Cc2c(C3CCCNC3)cc(-c3c(O)cccc3OCC3CC3)nc2NC1=O` (stereo not drawn) [Example 24-06] the value was under 500 nM.
For `CC(C)(C)COC(=O)N1Cc2c(C3CCCNC3)cc(-c3c(O)cccc3OCC3CC3)nc2NC1=O` (stereo not drawn) [Example 24-07] the value was under 500 nM; for `CN(C)C(=O)N1Cc2c(C3CCCNC3)cc(-c3c(O)cccc3OCC3CC3)nc2NC1=O` (stereo not drawn) [Example 24-08], under 500 nM.
Next, `NC(=O)N1Cc2c(C3CCCNC3)cc(-c3c(O)cccc3OCC3CC3)nc2NC1=O` (stereo not drawn) [Example 24-10]: under 500 nM.

Source of the values: patent US6984649B1, “Pyridine derivatives” (Bayer Aktiengesellschaft, priority 2000, dated 2006).
